Laboratory results reported in patent publication US10124008B2, “Use of inhibitors of acid sphingomyelinase to treat acquired and inherited retinal degenerations” (Wisconsin Alumni Research Foundation, priority 2014, dated 2018).

Legend:
[1] = tested on: CD59 on polarized primary RPE; experiment: Surface CD59 staining; assay type: cell-based, porcine; settings: RPE with A2E; short treatment with desipramine
Experimental: AlexaFluor secondary antibodies were used at 1:500. Filters were mounted under coverslips on glass slides under VECTASHIELD (Vector labs), sealed and visualized with Andor Revolution XD spinning disk confocal microscope using 60×1.4 NA or 100×1.49 NA oil objectives with identical exposures and gains for each antibody. Quantification of surface CD59 staining was performed using Imaris.

[2] = tested on: primary RPE monolayers; experiment: Lysosome exocytosis (surface LAMP2) after 10% normal human serum; assay type: cell-based, porcine; settings: RPE with A2E, complement attack; short treatment with desipramine
Experimental: Cells were rinsed in recording medium (HBSS with 4.5 g/L glucose, 20 mM HEPES) and incubated with ionomycin or […] normal human serum (Quidel) for 10 min at 37° C. Filters were immediately transferred to ice and analyzed for surface LAMP2 or β-hex activity (see below).
Cells were stained with mouse monoclonal antibody to the lumenal domain of Lamp2 (Serotec, MCA2558, 1:500) (48) or C5b-9 (Novus, NBP1-05120, 1:100) at 4° C. for 30 min. The antibody was diluted in PBS supplemented with Ca^2+ and Mg^2++1% BSA. Cells were then fixed with 2% PFA for 5 min on ice, permeabilized, and stained for ZO-1 as detailed above. Alexa-conjugated secondary antibodies (INVITROGEN) were used at 1:500 for 30 min. Cells were imaged by confocal microscopy (Andor Revolution XD) using a 60× 1.4 NA oil objective. For each set of experiments, the laser power, voltage and offset were identical for a given fluorophore. Quantification of Lamp2 staining was performed by obtaining the total fluorescence using the surface tool in Imaris (Bitplane).

[3] = tested on: ceramide in primary RPE; experiment: Immunofluorescence staining for ceramide; assay type: cell-based, porcine; settings: desipramine treatment
Experimental: (§1) ALEXAFLUOR secondary antibodies were used at 1:500 and rhodamine-phalloidin (Cytoskeleton, PHDR1) at 1:200. Filters were mounted under coverslips on glass slides under VECTASHIELD (Vector labs), sealed and visualized with Andor Revolution XD spinning disk confocal microscope using a 60×1.4 NA oil objective with identical exposures and gains for each antibody. Acetylated tubulin-labeled stable microtubules (≥5 μm in length) after nocodazole treatment were analyzed manually in the Surpass mode of Imaris (Bitplane).

[4] = tested on: acetylated tubulin in polarized primary RPE; experiment: Immunofluorescence staining of acetylated and tyrosinated tubulin; assay type: cell-based, porcine; settings: inhibitors 10 μM for 3 h, 48 h after A2E treatment
Experimental: as §1, with “VECTASHIELD” left out
We performed two initial screens: first, we compared the ability of functional inhibitors (fluoxetine and amitriptyline) with that of the lone structural ASMase inhibitor zoledronic acid in decreasing acetylated tubulin. Here, polarized RPE monolayers with or without A2E were treated with one of the three inhibitors (10 μM, 3 h). Desipramine as a positive control. At the end of the incubation period, cells were fixed and stained for acetylated tubulin, imaged and the amount of acetylated tubulin in the cells was quantified. Second, we evaluated three additional drugs (sertraline, astemizole and fexofenadine) for their abilities to increase autophagy in the RPE. Cells with or without bisretinoids were transfected with mRFP-GFP-LC3, starved to induce autophagy, treated with drugs and imaged as in FIG. 9D.

[5] = tested on: LC3B-II and p62 in primary RPE monolayers; experiment: Immunoblotting of LC3B-II and p62 in polarized primary RPE monolayers; assay type: cell-based, porcine; settings: A2E-laden RPE after mTOR inhibition; TO901317 1 μM 20 h, desipramine 10 μM 3 h
Experimental: RPE harvested from mouse eyecups were sonicated in lysis buffer with protease inhibitors for 10 min. Primary RPE on TRANSWELL filters were harvested and lysed with NE-PER nuclear and cytoplasmic extraction reagents (Thermo Scientific #78833) according to the manufacturer's recommendation. Protein concentrations were measured with DC assay (BioRad). […] Proteins were then transferred onto nitrocellulose membrane using IBLOT dry transfer system (INVITROGEN), blocked in 5% milk in TBS-T for 1 hour before incubating in primary antibody overnight at 4° C. Membranes were probed with antibodies to LC3B (1:3000, Novus NB600-1384 for pig and 1:500, Sigma L7543 for mouse), p62/SQSTM1 (1:1000, ARP03-GP62-C) and actin (1:5000, Santa Cruz) followed by horseradish peroxidase-conjugated secondary antibodies. Immunoblots were visualized by ECL substrate (Thermo Scientific) and quantified using Image Studio (LI-COR). […] Other drugs used were the mTOR inhibitors Torin 1 and Torin 2 (50 nM and 1.5 μM, respectively, for 2 h, TOCRIS), the vacuolar ATPase inhibitor bafilomycin A1 (100 nM for 2 h, EMD Millipore), the LXRα agonist TO901317 (1 μM for 20 h, Cayman Chemicals), the HDAC6 inhibitor trichostatin A (TSA, 500 nM, 16 h, Sigma) and the ASMase inhibitor desipramine (10 μM for 3 h, Sigma). To depolymerize MTs, cells were treated with 33 μM nocodazole for 30 minutes, followed by cold-treatment (4° C.) for 30 minutes (Kreitzer et al., 2003). At the concentrations and exposure times used, none of these drugs caused alterations in RPE cell morphology or physiology (monitored by TER measurements, ZO-1 and organelle marker staining). […] Conversion of LC3B-I to its lipidated form (LC3B-II) is an indicator of autophagosome biogenesis and p62 levels are a measure of autophagic flux (Klionsky et al., 2012).

[6] = tested on: MHC-II in RPE; experiment: Quantification of MHC-II staining; assay type: cell-based; settings: RPE with A2E

For `CNCCCN1c2ccccc2CCc2ccccc21` [desipramine], which “surface CD59 levels” value [1] is on record?
The value was “increased surface CD59 levels”.

And the lysosome exocytosis [2]?
The lysosome exocytosis was “restored lysosome exocytosis”.

And the ceramide levels [3]?
Its ceramide levels is “decreased ASMase activity and ceramide levels”.

What about the “acetylated tubulin in RPE with A2E” value [4] of the same compound?
The value was “decreased acetylated tubulin in cells with A2E”.

What about the “LC3B-II levels / autophagosome biogenesis (immunoblot)” value [5] of the same compound?
Its value is “increased LC3B-II levels in RPE with A2E comparable to those in control cells”.

What about the “p62 levels / autophagic flux (immunoblot)” value [5] of the same compound?
Its value is “decreased p62 levels in cells with A2E”.

What about the MHC-II protein levels [6] of the same compound?
The MHC-II protein levels was “decreased MHC-II protein levels”.
